Data as given in patent US20230003720A1 (priority 2016, published 2023).

Legend:
mOR18-2 = biological target: T1, mOR18-2 (Mus musculus, UniProt Q8VBV9); assay type: cell-based
T1 construct: expressed in transfected cells
T1 sequence (Q8VBV9 1-320): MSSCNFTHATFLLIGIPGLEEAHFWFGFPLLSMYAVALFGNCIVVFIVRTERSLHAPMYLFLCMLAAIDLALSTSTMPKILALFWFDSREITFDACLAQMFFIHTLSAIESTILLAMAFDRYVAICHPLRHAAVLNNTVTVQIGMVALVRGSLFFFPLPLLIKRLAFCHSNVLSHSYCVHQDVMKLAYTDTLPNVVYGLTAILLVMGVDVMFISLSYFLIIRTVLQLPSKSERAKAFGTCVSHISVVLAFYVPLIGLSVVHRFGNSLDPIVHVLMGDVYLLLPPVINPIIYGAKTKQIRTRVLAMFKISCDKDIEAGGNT

mOR178-1 = assay type: cell-based, mouse
mOR18-1 = assay type: cell-based, Mus musculus
OR2W1 = biological target: T2, OR2W1 (Homo sapiens, UniProt Q9Y3N9); assay type: cell-based
T2 construct: expressed in transfected cells
T2 sequence (Q9Y3N9 1-320): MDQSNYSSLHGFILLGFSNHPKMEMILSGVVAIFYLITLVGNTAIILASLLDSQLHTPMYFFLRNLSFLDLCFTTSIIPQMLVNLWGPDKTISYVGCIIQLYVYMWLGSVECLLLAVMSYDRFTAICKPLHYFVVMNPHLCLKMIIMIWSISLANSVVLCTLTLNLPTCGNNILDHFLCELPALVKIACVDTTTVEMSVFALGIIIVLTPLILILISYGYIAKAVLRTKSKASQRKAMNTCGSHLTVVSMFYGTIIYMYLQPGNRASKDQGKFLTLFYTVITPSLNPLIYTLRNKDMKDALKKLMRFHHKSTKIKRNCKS

Measured: receptor response as measured levels of luminescence

CCN(CC)C(=O)[C@@H]1C=C2c3cccc4[nH]cc(c34)C[C@H]2N(C)C1 [LSD]
responded: mOR18-2 | mOR178-1 | mOR18-1 | OR2W1

CC(=O)Oc1ccc2c3c1O[C@H]1[C@@H](OC(C)=O)C=C[C@H]4[C@@H](C2)N(C)CC[C@@]341 [heroine]
responded: mOR18-2 | mOR178-1 | mOR18-1 | OR2W1

c1ccc(C2(N3CCCCC3)CCCCC2)cc1 [PCP]
responded: mOR18-2 | mOR178-1 | mOR18-1 | OR2W1
